Measured values reported in publication PMC8000760, “Potential Effect of Pseudevernia furfuracea (L.) Zopf Extract and Metabolite Physodic Acid on Tumour Microenvironment Modulation in MCF-10A Cells” (Biomolecules, 2021).

Legend:
Smad2/3 in BJ-5ta = assay: Western blot of total Smad2/3 in TGF-β-stimulated fibroblasts; type: cell-based; settings: TGF-β-stimulated BJ-5ta
Description: (§1) The MCF-10A and BJ-5ta cells were seeded and cultivated for 24 h in a complete medium. One day after seeding, 30 ng/mL of TGF-β was added and cultivated for 7 days (d). TGF-β was added to induce epithelial–mesenchymal transition in tested cell lines. Lichen extract P. furfuracea (L.) Zopf and its metabolite physodic acid were added at time 0 h and then incubated for 24, 48 and 72 h for various analyses, as described in Figure 1.
(§2) Proteins isolated from MCF-10A and BJ-5ta cell lysates were determined by the Pierce® BCA Protein Assay Kit (Thermo Scientific, Rockford, IL, United States), using bovine serum albumin (BSA) as the standard, and measured by an automated Cytation™ 3 Cell Imaging Multi-Mode Reader (Biotek) at a wavelength of 570 nm. Proteins were separated on SDS-PAA gel (12%) at 100 V for 2 h and then transferred to a polyvinylidene difluoride (PVDF) membrane using the iBlot dry blotting system (Thermo Scientific, Rockford, IL, United States). […] After incubation, the membrane was again washed in TBS-Tween (3 × 5 min), and the expression of the protein was detected using a chemiluminescent ECL substrate (Thermo Fisher Scientific) and MF-ChemiBIS 2.0 Imaging System (DNR BIO-Imaging Systems, Jerusalem, Israel). The detected band was then analysed densitometrically using the Image Studio Lite software (LI-COR Biosciences, Lincoln, NE, USA). […]

MCF-10A [1] = assay: BrdU cell proliferation assay; type: cell-based, human; settings: 72 h
Description: (§3) The MCF-10A (5 × 10^3/well), BJ-5ta (5 × 10^3/well) and HUVEC cells (4 × 10^3/well) were plated in a 96-well plate in 80 μL suitable medium. HUVECs were seeded onto a gelatine-coated plate. After 24 h, cells were treated with the range of concentration 10–100 μg/mL for 72 h (MCF-10A, BJ-5ta), or in the presence or absence of 25 ng/mL of VEGF for 48 h (HUVECs). After 48 h (MCF-10A, BJ-5ta) or 24 h (HUVECs), BrdU labelling solution was added into cells and incubated for another 24 h at 37 °C, followed by fixation and incubation with anti-BrdU peroxidase conjugate solution for an additional 1.5 h at room temperature (RT). Then, cells were washed with washing buffer PBS and incubated with substrate solution TMB for 5 to 30 min according to colour intensity. Finally, we added stop solution (1 M H2SO4) and incorporated BrdU was detected with an automated CytationTM 3 Cell Imaging Multi-Mode Reader at 450 nm (reference wavelength: 690 nm). Three independent experiments were performed at different intervals.

HUVECs [2] = assay: BrdU cell proliferation assay; type: cell-based, human; settings: 48 h
Description: as §3

[3] = system: N-cadherin, fibronectin, α-SMA, Slug in BJ-5ta; assay: Western blot of mesenchymal markers in TGF-β-stimulated fibroblasts; type: cell-based; settings: TGF-β-stimulated BJ-5ta, 48 and 72 h, time- and dose-dependent manner
Description: as §1, §2

BJ-5ta = assay: MTS cell viability assay; type: cell-based; settings: 72 h
Description: (§4) Briefly, MCF-10A and BJ-5ta were seeded in 96-well culture plates, and after 24 h incubation, treated with various ranges of concentrations of tested compounds (10–100 μg/mL) for 72 h. At the same time, HUVECs were seeded in a gelatine-coated 96-well plate and treated with the same aliquots of indicated compounds in the presence or absence of VEGF (Vascular endothelial growth factor) (25 ng/mL) for 48 h. Cell viability was evaluated by measuring the absorbance at 490 nm using the automated CytationTM 3 Cell Imaging Multi-Mode Reader (Biotek, Winooski, VT, USA). Three independent experiments were performed at different intervals.

pSmad2/3 in BJ-5ta = assay: Western blot of phospho-Smad2/3 in TGF-β-stimulated fibroblasts; type: cell-based; settings: TGF-β-stimulated BJ-5ta, time-dose manner
Description: as §1, §2

Slug in BJ-5ta = assay: Western blot of Slug in TGF-β-stimulated fibroblasts; type: cell-based; settings: 72 h treatment
Description: as §1, §2

MCF-10A [4] = assay: MTS cell viability assay; type: cell-based, human; settings: 72 h
Description: as §4

HUVECs [5] = assay: MTS cell viability assay; type: cell-based, human; settings: 48 h
Description: as §4

`CCCCCC(=O)Cc1cc(O)cc2c1C(=O)Oc1cc(O)c(C(=O)O)c(CCCCC)c1O2` [Phy, physodic acid] was tested, and the “total Smad2/3 levels” value (Smad2/3 in BJ-5ta) was “altered minimally”, the IC10 (MCF-10A [1]) was 63.63 ± 3.40 µM and the IC50 (MCF-10A [1]; Homo sapiens) was 155 ± 7.4 µM. For the same molecule, the IC10 (HUVECs [2]) was 89.53 ± 3.21 µM, the IC50 (HUVECs [2]; Homo sapiens, HUVEC) was 124 ± 5.33 µM and the mesenchymal markers expression [3] was “significantly decrease”. The IC10 (BJ-5ta) was 46.35 ± 0.39 µM, the IC50 (BJ-5ta) was 83.2 ± 1.02 µM and the “phosphorylation levels of Smad2 and Smad3 (pSmad2/3)” value (pSmad2/3 in BJ-5ta) was “decreased”. For the same molecule, the Slug protein (Slug in BJ-5ta) was “downregulation”, the IC10 (MCF-10A [4]) was 59.25 ± 1.36 µM and the IC50 (MCF-10A [4]; Homo sapiens) was 79.9 ± 0.93 µM. The VEGF-induced cell growth (HUVECs [5]; HUVECs with VEGF 25 ng/mL) was “significantly inhibited”, the “cell growth of non-stimulated HUVECs” value (HUVECs [5]; HUVECs without VEGF) was “no significant differences” and the IC10 (HUVECs [5]; HUVECs) was 60.62 ± 3.30 µM. It also gave an IC50 (HUVECs [5]; Homo sapiens, HUVEC, HUVECs) of 92.8 ± 3.62 µM.
